Results on 58 sequences are retold here after PMC10977697 (PLOS ONE, 2024).

Where no end group is shown, it is not given here.

For the first assay, the system named is EpCAM. Put plainly: Spot phage ELISA, EpCAM. The assay is classed as binding, human. Particulars: spot phage ELISA signal-to-noise on EpCAM.
As for “GPTQSHYGQCGGRGYVGALMCSGTTCQYIAKPVSQCLPGAS (disulfide (positions not given here)) [EpCAM CBD 4]”, the S/N was 23.5.
Still for that read-out and setting: the figure for “GPTQSHYGQCGGRGYVGGIKCSGTTCQOVHAHPSQCLPGAS (disulfide) [EpCAM CBD 72]” is 8.0.
Consider “GPTQSHYGQCGGRGYWGMAICSGTTCQAQTRMISQCLPGAS (disulfide (positions not given here)) [EpCAM CBD 42]”, for which the S/N was determined as 11.4.
On the same count and under the same terms, the figure for “GPTQSHYGQCGGSGYHGAILCSGTTCQYVEVSRSQCLPGAS (disulfide (positions not given here)) [EpCAM CBD 10]” is 20.7; for “GPTQSHYGQCGGSGYKGAIKCSGTTCQLVTVHVSQCLPGAS (disulfide (positions not given here)) [EpCAM CBD 46]” it is 10.7.
On the same count and under the same terms, the figure for “GPTQSHYGQCGGSGYKGVIVCSGTTCQYKIMTMSQCLPGAS (disulfide (positions not given here)) [EpCAM CBD 44]” is 11.1; for “GPTQSHYGQCGGSGYPGAVVCSGTTCQWRQVPRSQCLPGAS (disulfide (positions not given here)) [EpCAM CBD 18]” it is 18.3; for “GPTQSHYGQCGGSGYPGHFLCSGTTCQTPRSWSSQCLPGAS (disulfide (positions not given here)) [EpCAM CBD 82]” it is 6.9.
Still for that read-out and setting: the value for “GPTQSHYGQCGGSGYWGAIACSGTTCQMVKLPYSQCLPGAS (disulfide (positions not given here)) [EpCAM CBD 69]” was 8.5.
Turning to “GPTQSHYGQCGGSGYYGAIMCSGTTCQYMRAMQSQCLPGAS (disulfide (positions not given here)) [EpCAM CBD 79]”, the S/N is reported as 7.4.
The same measure, in the same setting: the value for “GPTQSHYGQCGGSGYYGVIVCSGTTCQYVNRKPSQCLPGAS (disulfide (positions not given here)) [EpCAM CBD 36]” was 13.1; that for “GPTQSHYGQCGGSGYYGYIVCSGTTCQFKPSGRSQCLPGAS (disulfide (positions not given here)) [EpCAM CBD 81]” was 7.0; that for “GPTQSHYGQCGGTGYFGMMRCSGTTCQHVFLERSQCLPGAS (disulfide (positions not given here)) [EpCAM CBD 53]” was 9.5.
The same measure, in the same setting: the figure for “GPTQSHYGQCGGTGYHGVMLCSGTTCQLWAHPLSQCLPGAS (disulfide (positions not given here)) [EpCAM CBD 11]” is 20.6.
The same measure, in the same setting: the figure for “GPTQSHYGQCGGTGYPGAMVCSGTTCQLFELXVSQCLPGAS (disulfide) [EpCAM CBD 74]” is 7.8; for “GPTQSHYGQCGGTGYVGAHVCSGTTCQFVYRDFSQCLPGAS (disulfide (positions not given here)) [EpCAM CBD 48]” it is 10.5; for “GPTQSHYGQCGGTGYVGMFKCSGTTCQYVYSSASQCLPGAS (disulfide (positions not given here)) [EpCAM CBD 67]” it is 8.5.
For the sequence “GPTQSHYGQCGGTGYVGYTRCSGTTCQTVPAVMSQCLPGAS (disulfide (positions not given here)) [EpCAM CBD 16]”, the S/N was 18.9.
As to “GPTQSHYGQCGGVGYHGAIQCSGTTCQEVKMTRSQCLPGAS (disulfide (positions not given here)) [EpCAM CBD 3]”, the S/N is reported as 23.5.
Still for that read-out and setting: the value for “GPTQSHYGQCGGVGYHGMIVCSGTTCQWKPSVYSQCLPDAS (disulfide (positions not given here)) [EpCAM CBD 76]” was 7.6.
On the same count and under the same terms, the figure for “GPTQSHYGQCGGVGYVGSILCSGTTCQFTKVRTSQCLPGAS (disulfide (positions not given here)) [EpCAM CBD 50]” is 9.9; for “GPTQSHYGQCGGWGYQGWAICSGTTCQAQLSHKSQCLPGAS (disulfide (positions not given here)) [EpCAM CBD 83]” it is 6.8.
Still for that read-out and setting: the value for “GPTQSHYGQCGGXGYNGXIVCSGTTCQYXRKSKSQCLPGAS (disulfide) [EpCAM CBD 61]” was 8.8; that for “GPTQSHYGQCGGYGYPGLACSGTTCQYTYYMRSQCLPGAS (disulfide (positions not given here)) [EpCAM CBD 71]” was 8.3.
Regarding “GPTQSHYGQCGGYGYQGMMMCSGTTCQYVRHKVSQCLPGAS (disulfide (positions not given here)) [EpCAM CBD 30]”, the S/N stood at 15.6.
Sequence “GPTQSHYGQCGGYVGAIMCSGTTCQFQHVKQSQCLPGAS (disulfide (positions not given here)) [EpCAM CBD 38]” came in with a S/N of 12.9.
“GPTQSIYGVCGGIGYVGGRYCSGTTCQIPEKYKSQCLPGAS (disulfide (positions not given here)) [EpCAM CBD 45]” registered a S/N of 11.1.
“GPTQSLPGFCGGIGYVGGRYCSGTTCQLPEKLKSQCLPGAS (disulfide (positions not given here)) [EpCAM CBD 1]” registered a S/N of 26.7.
Still for that read-out and setting: the value for “GPTQSVIGPCGGIGYVGGRYCSGTTCQMPTSYRSQCLPGAS (disulfide (positions not given here)) [EpCAM CBD 35]” was 14.4.

In another assay the test system is CD16A. The assay is described as follows: Spot phage ELISA, CD16A. It is filed as binding, human. As to conditions: spot phage ELISA signal-to-noise on CD16A. In general terms: In an ELISA, binding on a coated surface is turned into a signal by an enzyme label.
“GCADTPWKGKCKQDSDCLAGCVCGPNGFCG (disulfide (positions not given here)) [CD16A EETI-II 20]” showed a S/N of 15.6.
The same measure, in the same setting: the figure for “GCADTPWQGRCKQDSDCLAGCVCGPNGFCG (disulfide (positions not given here)) [CD16A EETI-II 21]” is 25.5; for “GCAKDPWGQPMSCKQDSDCLAGCVCGPNGFC (disulfide (positions not given here)) [CD16A EETI-II 27]” it is 20.7.
On the same count and under the same terms, the figure for “GCAVDPWGKQMTCKQDSDCLAGCVCGPNGFC (disulfide (positions not given here)) [CD16A EETI-II 33]” is 19.5.
On the same count and under the same terms, the figure for “GCDAILWTCKQDSDCLAGCVCSEEDLCG (disulfide (positions not given here)) [CD16A EETI-II 7]” is 18.7; for “GCDAKLQQCKQDSDCLAGCVCEEAVICG (disulfide (positions not given here)) [CD16A EETI-II 2]” it is 22.9; for “GCDDILRACKQDSDCLAGCVCEEETLCG (disulfide (positions not given here)) [CD16A EETI-II 6]” it is 19.9.
Regarding “GCDDILRACKQDSDCLAGCVCEEETLCG (disulfide (positions not given here)) [CD16A EETI-II 9]”, the S/N is recorded as 17.8.
In turn, “GCDDPWGGEMCKQDSDCLAGCVCGPNGFCG (disulfide (positions not given here)) [CD16A EETI-II 16]” registered a S/N of 23.6.
“GCDDPWGMAMPCKQDSDCLAGCVCGPNGFCG (disulfide (positions not given here)) [CD16A EETI-II 17]” displayed a S/N of 23.4.
For “GCDEILHKCKQDSDCLAGCVCDEQQLCG (disulfide (positions not given here)) [CD16A EETI-II 10]”, the S/N came out at 17.2.
Regarding “GCDEMLYRCKQDSDCLAGCVCQEQDVCG (disulfide (positions not given here)) [CD16A EETI-II 5]”, the S/N is reported as 20.0.
Consider “GCDMPSWDNVWPCKQDSDCLAGCVCGPNGFC (disulfide (positions not given here)) [CD16A EETI-II 28]”, for which the S/N was 19.8.
Same read-out and setting: the value for “GCDSLLQRCKQDSDCLAGCVCTEEHLCG (disulfide (positions not given here)) [CD16A EETI-II 11]” was 16.8; that for “GCDWLEVECKQDSDCLAGCVCLISPYCG (disulfide (positions not given here)) [CD16A EETI-II 39]” was 16.3; that for “GCDYKLWRCKQDSDCLAGCVCEESQVCG (disulfide (positions not given here)) [CD16A EETI-II 3]” was 21.6.
Sequence “GCDYKLWRCKQDSDCLAGCVCEESQVCG (disulfide (positions not given here)) [CD16A EETI-II 8]” showed a S/N of 18.2.
On the same count and under the same terms, the value for “GCEWMAIPCKQDSDCLAGCVCWESPYCG (disulfide (positions not given here)) [CD16A EETI-II 40]” was 20.1; that for “GCGQAAVPCKQDSDCLAGCVCDPWGWCD (disulfide (positions not given here)) [CD16A EETI-II 29]” was 23.7.
Still for that read-out and setting: the value for “GCGSKNGMNMCKQDSDCLAGCVCDPWGQCD (disulfide (positions not given here)) [CD16A EETI-II 31]” was 15.5; that for “GCIATVDHCKQDSDCLAGCVCEPFHVCG (disulfide (positions not given here)) [CD16A EETI-II 4]” was 20.2.
Still for that read-out and setting: the figure for “GCIETIDHCKQDSDCLAGCVCQPMRRCG (disulfide (positions not given here)) [CD16A EETI-II 13]” is 20.1; for “GCMDTPWKGACKQDSDCLAGCVCGPNGFCG (disulfide (positions not given here)) [CD16A EETI-II 19]” it is 18.2; for “GCPRILMRCKQDPDCLAGCVCDEEQLCG (disulfide (positions not given here)) [CD16A EETI-II 1]” it is 25.4.
Sequence “GCPRILMRCKQDSDCLAGYVCDPWGVCD (disulfide (positions not given here)) [CD16A EETI-II 30]” yielded a S/N of 23.2.
Sequence “GCPWWWVVSCKQDSDCLAGCVCYLQENCG (disulfide (positions not given here)) [CD16A EETI-II 14]” showed a S/N of 17.8.
“GCPWWWVVSCKQDSDCLAGCVCYLQENCG (disulfide (positions not given here)) [CD16A EETI-II 43]”: the S/N is given as 16.5.
Still for that read-out and setting: the figure for “GCQDPWGEAMQCKQDSDCLAGCVCGPNGFCG (disulfide (positions not given here)) [CD16A EETI-II 15]” is 25.7; for “GCQFMKTECKQDSDCLAGCVCYESPWCG (disulfide (positions not given here)) [CD16A EETI-II 22]” it is 19.0.
